The source of these data is PMC8619202, “Optimization of Microwave-Assisted Green Method for Enhanced Solubilization of Water-Soluble Curcuminoids Prepared Using Steviol Glycosides” (Foods, 2021).

Converted amounts (≈) assume the structure as drawn.

The conditions of series [1]: cited from earlier work; for solubility in dimethyl sulfoxide / solubility in ethanol / solubility in water: from C. longa.
A short description of series [2]: Storage stability of curcuminoids solubilized in steviol glycoside solutions, HPLC. The conditions noted are these: for stability of solubilized curcuminoids at room temperature: 10% (w/v) SG, protected from light, 24 h. As for the experimental part:
(§1) In order to evaluate the stability in 10% (w/v) SGs, the water-soluble curcuminoids were analyzed by HPLC for 1 month. […] In order to achieve better solubility, transglycosylation is regarded as an important procedural phenomenon that leads to structural modifications and derivatizations that result in enhanced biological activities and improved solubility. Moreover, heating in the case of microwave irradiation is usually dependent on the nature of the sample, the solvent employed, and the irradiation power level mediated through the ionic conduction and dipole rotation (also known as dipole polarization) of the microwaves. In the absence of ions, water dipoles are found in the free form and may experience dipole rotation due to microwave radiation-induced oscillation.

Series [3] can be described thus: Solubility of curcuminoids in the presence of steviol glycosides, with or without microwave or other physical treatment, HPLC. The note with it: steviol glycoside 10% w/v; for Bisdemethoxycurcumin (mg/mL) NT / Curcumin (mg/mL) NT / Demethoxycurcumin (mg/mL) NT / Total Curcuminoids (mg/mL) NT: not treated by microwave. As for the experimental part: The effect of water concentration to extract curcuminoids was investigated. […] The mixture in an ethanol solution was vortexed for 15 min and centrifuged at 12,000× g for 10 min (SupraR30, W × D × H: 710 × 1000 × 1260 mm, Hanil Scientific Inc., Gimp, Korea). The supernatant was transferred to a new tube and ethanol was evaporated. The resulting powders were dissolved in water, centrifuged at 12,000× g for 10 min, and filtered through a 0.20 μm membrane (Agilent, Santa Clara, CA, USA).
Weighing of the appropriate amounts of each steviol glycoside and curcuminoids was carried out, and they were put into 50 mL glass bottles. Furthermore, the suspension of curcuminoid–SG was subjected to heating by exposure to microwave irradiation in a microwave-assisted extractor (CEM, Matthews, NC, USA) at 100 W and 25 °C. Prior to conducting chromatographic analyses as per the reported method of Nguyen et al., the filtration of all samples was performed using a 0.45 μm nylon syringe filter (Millipore, Billerica, MA, USA). The quantitative concentration determination of curcuminoids and SGs was performed by employing series of standard solutions of curcuminoid in methanol with concentrations ranging from 0.15 to 10 μg/mL according to the reported method. Chromatographic separation for quantitative analysis was carried out using an Agilent 1200 liquid chromatographic system (Agilent Technologies, Palo Alto, CA, USA) equipped with an autosampler, quaternary HPLC pump, degasser, ZORBAX SB-C18 column (5 μm, 4.6 × 150 mm), and UV detector (VWD) set at 210 and 260 nm. The mobile phase for HPLC consisted of solvent A, which was 0.1% trifluoroacetic acid in water, and solvent B, which was 0.1% trifluoroacetic acid in acetonitrile. The solvent gradient was as follows (relative to solvent A): 0 min, 80% A; 10 min, 75% B; 20 min, 65% B; 30 min, 50% B; 40 min, 40%; 50 min, 30%; 60 min, 0% B; 0 min, 20%; 10 min, 25% B; 20 min, 35% B; 30 min, 50%; 40 min, 60%; 50 min, 70%; and 60 min, 100%. The column temperature was maintained at 30 °C with an injection volume of 10 μL at a flow rate of 1.0 mL/min.
as §1

For `O=C(/C=C/c1ccc(O)cc1)CC(=O)/C=C/c1ccc(O)cc1` [BDMC, bisdemethoxycurcumin], in series [1], the “solubility in dimethyl sulfoxide” value was 25000 µg/mL (≈ 81.1 mM), the solubility in ethanol is 10000 µg/mL (≈ 32.4 mM) and the solubility in water is 11 µg/mL (≈ 0.0357 mM).

Consider `COc1cc(/C=C/C(=O)CC(=O)/C=C/c2ccc(O)c(OC)c2)ccc1O` [Curcumin, curcumin], for which, in series [1], the “solubility in dimethyl sulfoxide” value was 25000 µg/mL (≈ 67.9 mM), the solubility in ethanol is 10000 µg/mL (≈ 27.1 mM) and the solubility in water was 11 µg/mL (≈ 0.0299 mM).

In the case of `COc1cc(/C=C/C(O)=C/C(=O)/C=C/c2ccc(O)cc2)ccc1O` [DMC, demethoxycurcumin], in series [1], the “solubility in dimethyl sulfoxide” value is 25000 µg/mL (≈ 73.9 mM), the solubility in ethanol was 10000 µg/mL (≈ 29.6 mM) and the solubility in water was 11 µg/mL (≈ 0.0325 mM).

Consider `C=C1C[C@@]23CC[C@H]4[C@@](C)(CCC[C@@]4(C)C(=O)O[C@@H]4O[C@H](CO)[C@@H](O)[C@H](O)[C@H]4O)[C@@H]2CC[C@]1(O[C@@H]1O[C@H](CO)[C@@H](O)[C@H](O)[C@H]1O)C3` [R, rubusoside], for which the “solubility of curcumin in rubusoside aqueous solution” value in series [1] (10% rubusoside aqueous solution (w/v)) is 600 to 2300 µg/mL. In series [2], the “stability of solubilized curcuminoids at room temperature” value was “highly stable” and the “stability of aqueous curcuminoid solutions on long-term storage” value is on record as “did not exhibit good stability”.

Turning to `C=C1C[C@@]23CC[C@H]4[C@@](C)(CCC[C@@]4(C)C(=O)O)[C@@H]2CC[C@]1(O[C@@H]1O[C@H](CO)[C@@H](O)[C@H](O)[C@H]1O)C3` [SMG, steviol mono-glucoside], in series [3], the “Total Curcuminoids Ratio Microwave /NT (fold)” value is 7.3 fold, the “Bisdemethoxycurcumin (mg/mL) NT” value came to 0.04 ± 0.01 mg/mL, the “Curcumin (mg/mL) NT” value is 0.46 ± 0.1 mg/mL and the “Demethoxycurcumin (mg/mL) NT” value is recorded as 0.04 ± 0.01 mg/mL. In series [3], the “Total Curcuminoids (mg/mL) NT” value was 0.54 ± 0.1 mg/mL, the “Bisdemethoxycurcumin (mg/mL) Microwave” value turned out to be 0.52 ± 0.1 mg/mL, the “Curcumin (mg/mL) Microwave” value is recorded as 2.52 ± 0.15 mg/mL and the “Demethoxycurcumin (mg/mL) Microwave” value came out at 0.88 ± 0.1 mg/mL. The “Total Curcuminoids (mg/mL) Microwave” value in series [3] worked out at 3.92 ± 0.5 mg/mL.

As to `C=C1C[C@@]23CC[C@H]4[C@@](C)(CCC[C@@]4(C)C(=O)O[C@@H]4O[C@H](CO)[C@@H](O)[C@H](O)[C@H]4O)[C@@H]2CC[C@]1(O[C@@H]1O[C@H](CO)[C@@H](O)[C@H](O)[C@H]1O[C@@H]1O[C@H](CO)[C@@H](O)[C@H](O)[C@H]1O)C3` [ST, stevioside], the “stability of solubilized curcuminoids at room temperature” value in series [2] is listed as “highly stable”.

On to α-glucosyl stevioside [STG], for which, in series [3], the “Total Curcuminoids Ratio Microwave /NT (fold)” value was determined as 7.0 fold, the “Bisdemethoxycurcumin (mg/mL) NT” value is listed as 0.04 ± 0.01 mg/mL, the “Curcumin (mg/mL) NT” value came to 0.51 ± 0.2 mg/mL and the “Demethoxycurcumin (mg/mL) NT” value is on record as 0.05 ± 0.01 mg/mL. In addition, in series [3], the “Total Curcuminoids (mg/mL) NT” value worked out at 0.61 ± 0.1 mg/mL, the “Bisdemethoxycurcumin (mg/mL) Microwave” value came out at 0.69 ± 0.2 mg/mL, the “Curcumin (mg/mL) Microwave” value is listed as 2.72 ± 0.3 mg/mL and the “Demethoxycurcumin (mg/mL) Microwave” value came to 0.83 ± 0.1 mg/mL. Besides, the “Total Curcuminoids (mg/mL) Microwave” value in series [3] is given as 4.24 ± 0.6 mg/mL. The “stability of aqueous curcuminoid solutions on long-term storage” value in series [2] is reported as “very good stability”.
